Like-named read-outs stand apart in the source and are kept apart here.
Tests used:
[1] = target: T1, skeletal SR (SERCA1a only) (Oryctolagus cuniculus, UniProt P04191); test: Ca-ATPase activity of skeletal SR (SSR), NADH-linked enzyme-coupled assay; assay type: biochemical, rabbit; settings: for EC50 / Vmax @ 30 µM / ΔVmax @ 30 µM / percent change in Vmax vs DMSO control at 30 µM: SSR; for Vmax @ 30 µM / ΔVmax @ 30 µM / percent change in Vmax vs DMSO control at 30 µM: 30 µM compound; for ΔVmax @ 30 µM / percent change in Vmax vs DMSO control at 30 µM: relative to DMSO control; for percent change in Vmax vs DMSO control at 30 µM: read-out: ΔVmax @ 30 µM
T1 construct: Skeletal muscle SR membrane vesicles were isolated from longissimus dorsi obtained from New Zealand white rabbits; from tissue; host or cells: rabbit longissimus dorsi skeletal muscle, SR membrane vesicles
T1 sequence (P04191 1-994 isoform P04191-2): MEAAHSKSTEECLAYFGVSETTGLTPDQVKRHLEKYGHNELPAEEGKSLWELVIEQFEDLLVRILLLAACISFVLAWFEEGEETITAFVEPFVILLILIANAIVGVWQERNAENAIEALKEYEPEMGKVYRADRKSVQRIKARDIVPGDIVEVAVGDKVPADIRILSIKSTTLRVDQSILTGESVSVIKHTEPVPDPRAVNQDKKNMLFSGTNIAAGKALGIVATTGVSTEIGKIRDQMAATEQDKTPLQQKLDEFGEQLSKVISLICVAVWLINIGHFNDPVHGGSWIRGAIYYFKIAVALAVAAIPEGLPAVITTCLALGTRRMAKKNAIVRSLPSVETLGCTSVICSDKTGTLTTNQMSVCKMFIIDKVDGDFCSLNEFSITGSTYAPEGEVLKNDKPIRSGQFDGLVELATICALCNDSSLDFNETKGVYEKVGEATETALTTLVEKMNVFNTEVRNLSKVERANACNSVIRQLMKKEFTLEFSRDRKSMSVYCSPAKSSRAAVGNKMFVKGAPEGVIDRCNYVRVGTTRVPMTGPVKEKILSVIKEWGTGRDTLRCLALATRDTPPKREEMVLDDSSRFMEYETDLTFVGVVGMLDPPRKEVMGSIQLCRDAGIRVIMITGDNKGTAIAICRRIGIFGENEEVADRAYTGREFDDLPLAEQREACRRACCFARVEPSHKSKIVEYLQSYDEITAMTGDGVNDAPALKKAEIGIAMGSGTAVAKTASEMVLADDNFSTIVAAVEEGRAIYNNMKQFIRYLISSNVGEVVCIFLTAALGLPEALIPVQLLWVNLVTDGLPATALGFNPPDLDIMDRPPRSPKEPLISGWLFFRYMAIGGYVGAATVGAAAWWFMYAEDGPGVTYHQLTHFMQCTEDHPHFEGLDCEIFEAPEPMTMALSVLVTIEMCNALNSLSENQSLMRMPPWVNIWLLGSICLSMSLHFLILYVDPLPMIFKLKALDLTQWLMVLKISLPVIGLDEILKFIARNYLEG
Protocol: (§1) To further examine the functional effects of Hit compounds, Ca-ATPase assays were performed on both skeletal SR (SERCA1a only) and cardiac SR (SERCA2a + PLB) at a series of Ca concentrations ranging from pCa 5 to 8.
(§2) Skeletal muscle SR membrane vesicles were isolated from longissimus dorsi obtained from New Zealand white rabbits, as previously described. Cardiac SR membrane vesicles were isolated from ventricular myocardium obtained from fresh pig hearts. All experimental protocols were reviewed and approved by University of Minnesota’s Institutional Animal Care and Use Committee, an Association for Assessment and Accreditation of Laboratory Animal Care institution.
(§3) An enzyme-coupled, NADH-linked ATPase assay was used to measure SERCA ATPase activity in 96-well microplates. Each well contained 0.8 μg (skeletal) or 2 μg (cardiac) of SR vesicles adjusted for the different SERCA contents of skeletal and cardiac SR, 50 mM MOPS (pH 7.0), 100 mM KCl, 5 mM MgCl2, 1 mM EGTA, 0.2 mM NADH, 1 mM phosphoenol pyruvate, 10 IU/mL of pyruvate kinase, 10 IU/mL of lactate dehydrogenase, 3.5 μg/mL of the Ca ionophore A23187, and CaCl2 added to set free [Ca] to the desired values. The assay was started upon the addition of ATP at a final concentration of 5 mM and read in a SpectraMax Plus microplate spectrophotometer rom Molecular Devices (Sunnyvale, CA).

[2] = system: skeletal muscle SR Ca-ATPase; design: method as in PMID 12022919; settings: high concentrations (50 µM); cited from earlier work
[3] = target: T2, SERCA2a-PLB complex (GFP-SERCA2a / RFP-PLB in HEK293 cells) (Homo sapiens, UniProt P16615+P26678, C36A/C41F/C46A); test: FRET of SERCA2a-PLB biosensor in saponin-permeabilized cells at low and high Ca; settings: 100 nM Tg, low Ca (100 nM) vs high Ca (10 µM)
T2 sequence (P16615 1-997 isoform P16615-2, stated change not applied): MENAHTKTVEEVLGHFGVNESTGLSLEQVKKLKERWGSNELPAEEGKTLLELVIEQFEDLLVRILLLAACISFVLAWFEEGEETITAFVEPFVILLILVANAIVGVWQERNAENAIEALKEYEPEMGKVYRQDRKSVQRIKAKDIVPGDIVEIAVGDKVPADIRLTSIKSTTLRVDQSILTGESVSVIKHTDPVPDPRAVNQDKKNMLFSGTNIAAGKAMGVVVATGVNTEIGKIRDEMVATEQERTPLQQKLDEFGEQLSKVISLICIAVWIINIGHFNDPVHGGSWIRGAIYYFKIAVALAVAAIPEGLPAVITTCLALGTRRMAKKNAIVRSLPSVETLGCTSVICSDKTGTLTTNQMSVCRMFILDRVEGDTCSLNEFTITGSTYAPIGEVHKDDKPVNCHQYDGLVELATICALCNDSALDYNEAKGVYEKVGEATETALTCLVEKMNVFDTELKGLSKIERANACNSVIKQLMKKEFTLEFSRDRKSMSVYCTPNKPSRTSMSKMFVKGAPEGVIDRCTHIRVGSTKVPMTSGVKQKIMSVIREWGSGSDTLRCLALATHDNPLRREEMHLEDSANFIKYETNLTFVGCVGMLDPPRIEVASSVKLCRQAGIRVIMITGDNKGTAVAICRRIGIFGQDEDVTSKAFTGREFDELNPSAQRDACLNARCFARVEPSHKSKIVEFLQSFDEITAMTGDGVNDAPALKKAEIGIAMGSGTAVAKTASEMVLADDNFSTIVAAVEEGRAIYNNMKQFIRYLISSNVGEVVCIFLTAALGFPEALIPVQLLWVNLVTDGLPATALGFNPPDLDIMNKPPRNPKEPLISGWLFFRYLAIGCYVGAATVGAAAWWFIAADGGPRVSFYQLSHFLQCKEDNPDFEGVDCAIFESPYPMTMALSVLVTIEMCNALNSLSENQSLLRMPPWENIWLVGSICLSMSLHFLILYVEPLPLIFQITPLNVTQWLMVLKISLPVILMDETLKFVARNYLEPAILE
T2 sequence (P26678 whole entry C36A/C41F/C46A, the tested form may be a part): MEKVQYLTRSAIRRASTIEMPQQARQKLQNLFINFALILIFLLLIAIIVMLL
Protocol: To test this, we quantified FRET changes in permeabilized cells under conditions of low Ca (100 nM) and high Ca (10 µM).
(a) Left- FLT measurements in saponin-permeabilized cells under conditions of low Ca (100 nM) and high Ca (10 µM), and in the absence and presence (100 nM) of the SERCA inhibitor thapsigargin (Tg). […] Error bars indicate SD (n = 3). Statistical differences determined using 1-way ANOVA followed by Tukey post hoc analysis (more detailed analysis is provided in Supplemental Table 4). *P ≤ 0.01 and N.S. indicating P ≥ 0.05.
To generate SERCA2a-PLB biosensor, HEK293 cells were transiently transfected using Lipofectamine 3000 with GFP-SERCA2a and RFP-PLB in a 1:7 molar ratio for the screen. Cells were then assayed 48 hours post-transfection. For cell permeabilization experiments, cells were trypsinized (TrypLE, Thermo Fischer Scientific), PBS-washed (three times), and resuspended in a homogenization buffer (20 mM MOPS, 0.5 MgCl2, protease inhibitor cocktail (Roche, Basel, Switzerland)). Saponin (Sigma-Aldrich) was added to a final concentration of 10 µg/mL and cells were incubated for 4 min at 37 °C water bath. Saponin was removed by centrifugation for 3 min, cells were washed twice with homogenization buffer, and resuspended in homogenization buffer.

[4] = target: GFP-SERCA2a (eGFP fused to the N-terminus of human cardiac sarcoplasmic reticulum Ca-ATPase SERCA2a) (human) (UniProt P16615); test: FRET or BRET; time-resolved FRET (donor fluorescence lifetime) in saponin-permeabilized HEK293 cells, low Ca (100 nM); also tested with 100 nM thapsigargin
Sequence of GFP-SERCA2a (eGFP fused to the N-terminus of human cardiac sarcoplasmic reticulum Ca-ATPase SERCA2a) (human) (P16615 other isoform, or with tags, fused parts or gaps): as the sequence (P16615 1-997 isoform P16615-2, stated change not applied) above

[5] = target: GFP-SERCA2a (eGFP fused to the N-terminus of human cardiac sarcoplasmic reticulum Ca-ATPase SERCA2a) (human) (UniProt P16615); test: FRET or BRET; time-resolved FRET (donor fluorescence lifetime, plate reader) in live HEK293 cells co-expressing GFP-SERCA2a (donor) and increasing amounts of RFP-PLB (acceptor); value at saturating acceptor
[6] = target: GFP-SERCA2a (eGFP fused to the N-terminus of human cardiac sarcoplasmic reticulum Ca-ATPase SERCA2a) (human) (UniProt P16615); test: FRET or BRET; time-resolved FRET (donor fluorescence lifetime) in saponin-permeabilized HEK293 cells, high Ca (10 µM); also tested with 100 nM thapsigargin, which prevents the Ca-dependent decrease in FRET
[7] = target: T2, SERCA2a-PLB complex (GFP-SERCA2a / RFP-PLB in HEK293 cells); test: SERCA2a-PLB TR-FRET (fluorescence lifetime) biosensor assay in living cells; assay type: cell-based; design: expressed in transfected cells; host or cells: HEK293; settings: for ΔFLT: compound incubation for 20 min, uncertainty (1 S.D.) 11 ps
[8] = target: T3, cardiac SR (SERCA2a + PLB) (Sus scrofa, UniProt P11607); test: Ca-ATPase activity of cardiac SR (CSR), NADH-linked enzyme-coupled assay; assay type: biochemical, pig; settings: CSR; for Vmax @ 30 µM / ΔVmax @ 30 µM: 30 µM compound; for ΔVmax @ 30 µM: relative to DMSO control; for EC50: read-out: EC50 Vmax
T3 construct: Cardiac SR membrane vesicles were isolated from ventricular myocardium obtained from fresh pig hearts; from tissue; host or cells: pig ventricular myocardium, SR membrane vesicles
T3 sequence (P11607 1-997 isoform P11607-2): as the sequence (P16615 1-997 isoform P16615-2, stated change not applied) above, with R371K, N403K, S538P, L570M, H576N, D667E, A713S, S865T, I889V, V963L counted along it
T3 sequence (P61013 whole entry partner): as the sequence (P26678 whole entry C36A/C41F/C46A, the tested form may be a part) above, with E2D, K27N, A36C, F41C, A46C counted along it
Protocol: as §1, with “To characterize the relationship between the structural readout (FRET) and the functional effects, in vitro Ca-ATPase assays were performed on cardiac SR (which contains both SERCA2a and PLB). […] To” for “To”
as §2, §3

[9] = concentration-response 0.01-100 µM compound, live HEK293 cells

Sequence of RFP-PLB (tagRFP fused to the N-terminus of a monomeric mutant of human phospholamban) (P26678 whole entry C36A/C46A, change not shown, the tested form may be a part): as the sequence (P26678 whole entry C36A/C41F/C46A, the tested form may be a part) above, with F41C counted along it

Compound | EC50 [1] | Vmax @ 30 µM [1] | ΔVmax @ 30 µM [1] | EC50 ([1]; listed as ivermectin) | decrease of Vmax ([1]; skeletal SR) | Ca-ATPase activity inhibited [2] | effect on Ca-dependent decrease in FRET [3] | FRET efficiency E [4] | maximum FRET efficiency E [5] | FRET efficiency E [6] | percent change in Vmax vs DMSO control at 30 µM [1] | ΔFLT ([7]; final concentration 10 µM) | ΔFLT ([7]; final concentration 100 µM) | EC50 [7, 9] | Vmax @ 30 µM [8] | ΔVmax @ 30 µM [8] | EC50 [8] | EC50 [7]
Ivermectin | 5.75 µM | 0.32 i.u. | -87.6% | 5.8 µM | 88% | 90% |  |  |  |  |  |  |  |  |  |  |  | 
C/C=C(/C)C(=O)O[C@H]1C(C)=C2[C@H]([C@@H]1OC(=O)CCCCCCC)[C@@](C)(OC(C)=O)C[C@H](OC(=O)CCC)[C@@]1(O)[C@H]2OC(=O)[C@@]1(C)O [thapsigargin] |  |  |  |  |  |  | prevents the Ca-dependent decreases in FRET |  |  |  |  |  |  |  |  |  |  | 
RFP-PLB (tagRFP fused to the N-terminus of a monomeric mutant of human phospholamban) (from UniProt P26678 1-52) (natural protein) |  |  |  |  |  |  |  | 0.14 | 0.103 | 0.11 |  |  |  |  |  |  |  | 
Clc1ccc(C(c2ccc(Cl)cc2)n2cc[n+](CC(OCc3ccc(Cl)cc3Cl)c3ccc(Cl)cc3Cl)c2)cc1 (stereo not shown) [Calmidazolium] | 7.43 µM | 0.01 i.u. |  |  |  |  |  |  |  |  | -99.5% | 45 ps | -192 ps | 26.3 µM | 0.08 i.u. | -88.7% | 15.9 µM | 
Oc1ccc(/C=C/c2ccc(/C=C/c3ccc(O)cc3)c(Br)c2)cc1 [K114] | 3.53 µM | 0.32 i.u. | -87.9% |  |  |  |  |  |  |  |  | -16 ps | -102 ps | 41.3 µM | 0.11 i.u. | -83.7% | 6.7 µM | 
Cc1[nH]c(=O)c(C#N)cc1-c1ccc2nccn2c1 [Olprinone] |  | 2.70 i.u. |  |  |  |  |  |  |  |  | 3% | 36 ps | 254 ps | > 100 µM | 0.68 i.u. | -0.1% |  | 
CCCCCCCCCCCCCCCC(=O)OC(CC(=O)O)C[N+](C)(C)C.[Cl-] (racemic) [Palmitoyl-DL-carnitine chloride] | 12.2 µM | 0.57 i.u. | -78.1% |  |  |  |  |  |  |  |  | 50 ps | 189 ps | 24.9 µM | 0.22 i.u. | -67.1% | 16.1 µM | 
CNC(=O)c1cc2c(cn1)[nH]c1ccccc12 [FG7142] |  | 2.63 i.u. | 0.5% |  |  |  |  |  |  |  |  | 4 ps | 10 ps |  | 0.67 i.u. | -0.7% |  | 
O=C(Nc1cccnc1)N1CCC(Cc2cccc(Oc3ccc(C(F)(F)F)cn3)c2)CC1 [PF3845] |  | 2.61 i.u. |  |  |  |  |  |  |  |  | -0.2% | 30 ps | 38 ps |  | 0.48 i.u. | -28.3% |  | 3.2 µM
CN1CCC[C@@H]1Cc1c[nH]c2ccc(Nc3ncccc3[N+](=O)[O-])cc12 [CP-135807] |  | 2.67 i.u. | 2.1% |  |  |  |  |  |  |  |  | -70 ps | -390 ps | > 100 µM | 0.65 i.u. | -3.8% |  | 

— PMC6105598, “Targeting protein-protein interactions for therapeutic discovery via FRET-based high-throughput screening in living cells” (Scientific Reports, 2018)
